Experimental data published in ChEMBL document CHEMBL1687815, “In vivo selection of a missense mutation in adeR and conversion of the novel blaOXA-164 gene into blaOXA-58 in carbapenem-resistant Acinetobacter baumannii isolates from a hospitalized patient” (2010).
The source made the active and inactive calls.

Legend:
Acinetobacter baumannii [1] = experiment: Antimicrobial activity against Acinetobacter baumannii isolate I expressing beta-lactamase OXA-58 isolated from tracheal secretion of patient in presence of Sulbactam by vitek 2 system
Acinetobacter baumannii [2] = experiment: Antimicrobial activity against Acinetobacter baumannii isolate D expressing beta-lactamase OXA-164 isolated from tracheal secretion of patient in presence of Sulbactam by vitek 2 system
Acinetobacter baumannii [3] = experiment: Antimicrobial activity against Acinetobacter baumannii isolate K expressing beta-lactamase OXA-58 isolated from blood culture of patient in presence of Sulbactam by vitek 2 system
Acinetobacter baumannii [4] = experiment: Antimicrobial activity against Acinetobacter baumannii isolate H expressing beta-lactamase OXA-58 isolated from tracheal secretion of patient in presence of Sulbactam by vitek 2 system
Acinetobacter baumannii [5] = experiment: Antimicrobial activity against Acinetobacter baumannii isolate L expressing beta-lactamase OXA-58 isolated from tracheal secretion of patient in presence of Sulbactam by vitek 2 system
Acinetobacter baumannii [6] = experiment: Antimicrobial activity against Acinetobacter baumannii isolate F expressing beta-lactamase OXA-164 isolated from tracheostoma of patient in presence of Sulbactam by vitek 2 system
Acinetobacter baumannii [7] = experiment: Antimicrobial activity against Acinetobacter baumannii isolate E expressing beta-lactamase OXA-164 isolated from tracheal secretion of patient in presence of Sulbactam by vitek 2 system
Acinetobacter baumannii [8] = experiment: Antimicrobial activity against Acinetobacter baumannii isolate C expressing beta-lactamase OXA-164 isolated from tracheal secretion of patient in presence of Sulbactam by vitek 2 system
Acinetobacter baumannii [9] = experiment: Antimicrobial activity against Acinetobacter baumannii isolate B expressing beta-lactamase OXA-164 isolated from tracheal secretion of patient in presence of Sulbactam by vitek 2 system
Acinetobacter baumannii [10] = experiment: Antimicrobial activity against Acinetobacter baumannii isolate A expressing beta-lactamase OXA-164 isolated from tracheal secretion of patient in presence of Sulbactam by vitek 2 system
Acinetobacter baumannii [11] = experiment: Antimicrobial activity against Acinetobacter baumannii isolate G expressing beta-lactamase OXA-58 isolated from tracheal secretion of patient in presence of Sulbactam by vitek 2 system
Acinetobacter baumannii [12] = experiment: Antimicrobial activity against Acinetobacter baumannii isolate J expressing beta-lactamase OXA-58 isolated from bedsore in presence of Sulbactam by vitek 2 system
Acinetobacter baumannii [13] = experiment: Antimicrobial activity against Acinetobacter baumannii isolate M expressing beta-lactamase OXA-58 isolated from tracheal secretion of patient in presence of Sulbactam by vitek 2 system
Acinetobacter baumannii [14] = experiment: Antimicrobial activity against Acinetobacter baumannii isolate L expressing beta-lactamase OXA-58 isolated from tracheal secretion of patient by vitek 2 system
Acinetobacter baumannii [15] = experiment: Antimicrobial activity against Acinetobacter baumannii isolate K expressing beta-lactamase OXA-58 isolated from blood culture of patient in presence of Tazobactam by vitek 2 system
Acinetobacter baumannii [16] = experiment: Antimicrobial activity against Acinetobacter baumannii isolate G expressing beta-lactamase OXA-58 isolated from tracheal secretion of patient in presence of Tazobactam by vitek 2 system
Acinetobacter baumannii [17] = experiment: Antimicrobial activity against Acinetobacter baumannii isolate C expressing beta-lactamase OXA-164 isolated from tracheal secretion of patient in presence of Tazobactam by vitek 2 system
Acinetobacter baumannii [18] = experiment: Antimicrobial activity against Acinetobacter baumannii isolate F expressing beta-lactamase OXA-164 isolated from tracheostoma of patient in presence of Tazobactam by vitek 2 system
Acinetobacter baumannii [19] = experiment: Antimicrobial activity against Acinetobacter baumannii isolate L expressing beta-lactamase OXA-58 isolated from tracheal secretion of patient in presence of Tazobactam by vitek 2 system
Acinetobacter baumannii [20] = experiment: Antimicrobial activity against Acinetobacter baumannii isolate J expressing beta-lactamase OXA-58 isolated from bedsore by vitek 2 system
Acinetobacter baumannii [21] = experiment: Antimicrobial activity against Acinetobacter baumannii isolate D expressing beta-lactamase OXA-164 isolated from tracheal secretion of patient in presence of Tazobactam by vitek 2 system
Acinetobacter baumannii [22] = experiment: Antimicrobial activity against Acinetobacter baumannii isolate B expressing beta-lactamase OXA-164 isolated from tracheal secretion of patient in presence of Tazobactam by vitek 2 system
Acinetobacter baumannii [23] = experiment: Antimicrobial activity against Acinetobacter baumannii isolate E expressing beta-lactamase OXA-164 isolated from tracheal secretion of patient by vitek 2 system
Acinetobacter baumannii [24] = experiment: Antimicrobial activity against Acinetobacter baumannii isolate A expressing beta-lactamase OXA-164 isolated from tracheal secretion of patient in presence of Tazobactam by vitek 2 system
Acinetobacter baumannii [25] = experiment: Antimicrobial activity against Acinetobacter baumannii isolate K expressing beta-lactamase OXA-58 isolated from blood culture of patient by vitek 2 system
Acinetobacter baumannii [26] = experiment: Antimicrobial activity against Acinetobacter baumannii isolate I expressing beta-lactamase OXA-58 isolated from tracheal secretion of patient in presence of Tazobactam by vitek 2 system
Acinetobacter baumannii [27] = experiment: Antimicrobial activity against Acinetobacter baumannii isolate A expressing beta-lactamase OXA-164 isolated from tracheal secretion of patient by vitek 2 system
Acinetobacter baumannii [28] = experiment: Antimicrobial activity against Acinetobacter baumannii isolate D expressing beta-lactamase OXA-164 isolated from tracheal secretion of patient by vitek 2 system
Acinetobacter baumannii [29] = experiment: Antimicrobial activity against Acinetobacter baumannii isolate C expressing beta-lactamase OXA-164 isolated from tracheal secretion of patient by vitek 2 system
Acinetobacter baumannii [30] = experiment: Antimicrobial activity against Acinetobacter baumannii isolate J expressing beta-lactamase OXA-58 isolated from bedsore in presence of Tazobactam by vitek 2 system
Acinetobacter baumannii [31] = experiment: Antimicrobial activity against Acinetobacter baumannii isolate I expressing beta-lactamase OXA-58 isolated from tracheal secretion of patient by vitek 2 system
Acinetobacter baumannii [32] = experiment: Antimicrobial activity against Acinetobacter baumannii isolate E expressing beta-lactamase OXA-164 isolated from tracheal secretion of patient in presence of Tazobactam by vitek 2 system
Acinetobacter baumannii [33] = experiment: Antimicrobial activity against Acinetobacter baumannii isolate H expressing beta-lactamase OXA-58 isolated from tracheal secretion of patient in presence of Tazobactam by vitek 2 system
Acinetobacter baumannii [34] = experiment: Antimicrobial activity against Acinetobacter baumannii isolate H expressing beta-lactamase OXA-58 isolated from tracheal secretion of patient by vitek 2 system
Acinetobacter baumannii [35] = experiment: Antimicrobial activity against Acinetobacter baumannii isolate F expressing beta-lactamase OXA-164 isolated from tracheostoma of patient by vitek 2 system
Acinetobacter baumannii [36] = experiment: Antimicrobial activity against Acinetobacter baumannii isolate M expressing beta-lactamase OXA-58 isolated from tracheal secretion of patient in presence of Tazobactam by vitek 2 system
Acinetobacter baumannii [37] = experiment: Antimicrobial activity against Acinetobacter baumannii isolate M expressing beta-lactamase OXA-58 isolated from tracheal secretion of patient by vitek 2 system
Acinetobacter baumannii [38] = experiment: Antimicrobial activity against Acinetobacter baumannii isolate B expressing beta-lactamase OXA-164 isolated from tracheal secretion of patient by vitek 2 system
Acinetobacter baumannii [39] = experiment: Antimicrobial activity against Acinetobacter baumannii isolate G expressing beta-lactamase OXA-58 isolated from tracheal secretion of patient by vitek 2 system

Measured: MIC

CC1(C)S[C@@H]2[C@H](NC(=O)[C@H](N)c3ccccc3)C(=O)N2[C@H]1C(=O)O
inactive: Acinetobacter baumannii [1] | Acinetobacter baumannii [2] | Acinetobacter baumannii [3] | Acinetobacter baumannii [4] | Acinetobacter baumannii [5] | Acinetobacter baumannii [6] | Acinetobacter baumannii [7] | Acinetobacter baumannii [8] | Acinetobacter baumannii [9] | Acinetobacter baumannii [10] | Acinetobacter baumannii [11] | Acinetobacter baumannii [12] | Acinetobacter baumannii [13]

CCN1CCN(C(=O)N[C@@H](C(=O)N[C@@H]2C(=O)N3[C@@H]2SC(C)(C)[C@@H]3C(=O)O)c2ccccc2)C(=O)C1=O
inactive: Acinetobacter baumannii [14] | Acinetobacter baumannii [15] | Acinetobacter baumannii [16] | Acinetobacter baumannii [17] | Acinetobacter baumannii [18] | Acinetobacter baumannii [19] | Acinetobacter baumannii [20] | Acinetobacter baumannii [21] | Acinetobacter baumannii [22] | Acinetobacter baumannii [23] | Acinetobacter baumannii [24] | Acinetobacter baumannii [25] | Acinetobacter baumannii [26] | Acinetobacter baumannii [27] | Acinetobacter baumannii [28] | Acinetobacter baumannii [29] | Acinetobacter baumannii [30] | Acinetobacter baumannii [31] | Acinetobacter baumannii [32] | Acinetobacter baumannii [33] | Acinetobacter baumannii [34] | Acinetobacter baumannii [35] | Acinetobacter baumannii [36] | Acinetobacter baumannii [37] | Acinetobacter baumannii [38] | Acinetobacter baumannii [39]
